Laboratory results published in ChEMBL document CHEMBL5303573, “Mapping human microbiome drug metabolism by gut bacteria and their genes” (Nature, 2019).

Assays:
[1] = The drug is tested on Bacteroides finegoldii strain: DSM17565 for biotransformation. The drug concentrations were measured before and after a 12-h incubation by liquid-chromatography-coupled mass spectrometry (LC–MS); conditions: 2 µM
[2] = The drug is tested on Eubacterium rectale strain: ATCC33656 for biotransformation. The drug concentrations were measured before and after a 12-h incubation by liquid-chromatography-coupled mass spectrometry (LC–MS); conditions: agathobacter rectalis, 2 µM
[3] = segatella copri, 12 h, 2 µM
Description: The drug is tested on Prevotella copri strain: DSM18205 for biotransformation. The drug concentrations were measured before and after a 12-h incubation by liquid-chromatography-coupled mass spectrometry (LC–MS)

[4] = The drug is tested on Bacteroides sp. WH2 strain: WH2 for biotransformation. The drug concentrations were measured before and after a 12-h incubation by liquid-chromatography-coupled mass spectrometry (LC–MS); conditions: bacteroides sp. wh2, 12 h, 2 µM
[5] = The drug is tested on Bacteroides vulgatus strain: ATCC8482 for biotransformation. The drug concentrations were measured before and after a 12-h incubation by liquid-chromatography-coupled mass spectrometry (LC–MS); conditions: phocaeicola vulgatus, 2 µM
[6] = The drug is tested on Clostridium asparagiforme strain: DSM15981 for biotransformation. The drug concentrations were measured before and after a 12-h incubation by liquid-chromatography-coupled mass spectrometry (LC–MS); type: ADME; set-up: dose 2 uM, timepoint 0 vs 12 hours; conditions: enterocloster asparagiformis, 2 µM
[7] = The drug is tested on Bacteroides ovatus strain: ATCC8483 for biotransformation. The drug concentrations were measured before and after a 12-h incubation by liquid-chromatography-coupled mass spectrometry (LC–MS); conditions: 2 µM
[8] = enterocloster bolteae, 12 h, 2 µM
Description: The drug is tested on Clostridium bolteae strain: ATCCBAA-613 for biotransformation. The drug concentrations were measured before and after a 12-h incubation by liquid-chromatography-coupled mass spectrometry (LC–MS)

[9] = bacteroides stercoris, 12 h, 2 µM
Description: The drug is tested on Bacteroides stercoris strain: ATCC43183 for biotransformation. The drug concentrations were measured before and after a 12-h incubation by liquid-chromatography-coupled mass spectrometry (LC–MS)

[10] = bacteroides eggerthii, 12 h, 2 µM
Description: The drug is tested on Bacteroides eggerthii strain: DSM20697 for biotransformation. The drug concentrations were measured before and after a 12-h incubation by liquid-chromatography-coupled mass spectrometry (LC–MS)

[11] = The drug is tested on Bifidobacterium ruminantium strain: fecal isolate for biotransformation. The drug concentrations were measured before and after a 12-h incubation by liquid-chromatography-coupled mass spectrometry (LC–MS); conditions: 2 µM
[12] = The drug is tested on Providencia stuartii strain: ATCC25827 for biotransformation. The drug concentrations were measured before and after a 12-h incubation by liquid-chromatography-coupled mass spectrometry (LC–MS); conditions: 2 µM
[13] = bacteroides thetaiotaomicron, 12 h, 2 µM
Description: The drug is tested on Bacteroides thetaiotaomicron strain: VPI-5482 for biotransformation. The drug concentrations were measured before and after a 12-h incubation by liquid-chromatography-coupled mass spectrometry (LC–MS)

[14] = The drug is tested on Bacteroides pectinophilus strain: ATCC43243 for biotransformation. The drug concentrations were measured before and after a 12-h incubation by liquid-chromatography-coupled mass spectrometry (LC–MS); conditions: 2 µM
[15] = The drug is tested on Blautia luti strain: DSM14534 for biotransformation. The drug concentrations were measured before and after a 12-h incubation by liquid-chromatography-coupled mass spectrometry (LC–MS); type: ADME; set-up: dose 2 uM, timepoint 0 vs 12 hours; conditions: 2 µM
[16] = The drug is tested on Bacteroides dorei strain: DSM17855 for biotransformation. The drug concentrations were measured before and after a 12-h incubation by liquid-chromatography-coupled mass spectrometry (LC–MS); conditions: phocaeicola dorei, 2 µM
[17] = The drug is tested on Ruminococcus torques strain: ATCC27756 for biotransformation. The drug concentrations were measured before and after a 12-h incubation by liquid-chromatography-coupled mass spectrometry (LC–MS); type: ADME; set-up: dose 2 uM, timepoint 0 vs 12 hours; conditions: 2 µM
[18] = The drug is tested on Eubacterium hallii strain: DSM3353 for biotransformation. The drug concentrations were measured before and after a 12-h incubation by liquid-chromatography-coupled mass spectrometry (LC–MS); conditions: anaerobutyricum hallii, 2 µM
[19] = The drug is tested on Odoribacter splanchnicus strain: fecal isolate for biotransformation. The drug concentrations were measured before and after a 12-h incubation by liquid-chromatography-coupled mass spectrometry (LC–MS); conditions: 2 µM
[20] = The drug is tested on Enterobacter cancerogenus strain: ATCC35316 for biotransformation. The drug concentrations were measured before and after a 12-h incubation by liquid-chromatography-coupled mass spectrometry (LC–MS); conditions: 2 µM

Row | Structure (SMILES) | Bacterial Biotransformation [1] | Bacterial Biotransformation [2] | Bacterial Biotransformation [3] | Bacterial Biotransformation [4] | Bacterial Biotransformation [5] | Bacterial Biotransformation [6] | Bacterial Biotransformation [7] | Bacterial Biotransformation [8] | Bacterial Biotransformation [9] | Bacterial Biotransformation [10] | Bacterial Biotransformation [11] | Bacterial Biotransformation [12] | Bacterial Biotransformation [13] | Bacterial Biotransformation [14] | Bacterial Biotransformation [15] | Bacterial Biotransformation [16] | Bacterial Biotransformation [17] | Bacterial Biotransformation [18] | Bacterial Biotransformation [19] | Bacterial Biotransformation [20]
1 | O=P(O)(O)O.c1ccc(CN(CC2=NCCN2)c2ccccc2)cc1 [ANTAZOLINE PHOSPHATE] | Compound NOT metabolized | Compound NOT metabolized | Compound NOT metabolized | Compound NOT metabolized | Compound NOT metabolized | Compound NOT metabolized | Compound NOT metabolized | Compound NOT metabolized | Compound NOT metabolized | Compound NOT metabolized | Compound NOT metabolized | Compound NOT metabolized | Compound NOT metabolized | Compound NOT metabolized | Compound NOT metabolized | Compound NOT metabolized | Compound NOT metabolized | Compound NOT metabolized | – | –
2 | C[C@]12CCC(=O)C=C1[C@@H]1C[C@@H]1[C@H]1[C@@H]3[C@@H]4C[C@@H]4[C@@]4(CCC(=O)O4)[C@@]3(C)CC[C@@H]12 [DROSPIRENONE] | Compound NOT metabolized | Compound NOT metabolized | Compound NOT metabolized | Compound NOT metabolized | Compound metabolized | Compound NOT metabolized | – | Compound NOT metabolized | Compound NOT metabolized | Compound NOT metabolized | Compound NOT metabolized | – | – | Compound NOT metabolized | Compound NOT metabolized | Compound metabolized | Compound NOT metabolized | Compound NOT metabolized | Compound metabolized | –
3 | OC(CCN1CCCCC1)(c1ccccc1)C1CCCCC1 (stereo not drawn) [TRIHEXYPHENIDYL] | Compound NOT metabolized | Compound NOT metabolized | – | Compound NOT metabolized | – | Compound NOT metabolized | Compound NOT metabolized | – | – | – | Compound metabolized | Compound NOT metabolized | Compound NOT metabolized | Compound NOT metabolized | Compound NOT metabolized | Compound metabolized | – | Compound NOT metabolized | – | –
4 | CC(C)(C)NC[C@H](O)COc1nsnc1N1CCOCC1.O=C(O)/C=C\C(=O)O [TIMOLOL MALEATE] | Compound NOT metabolized | Compound NOT metabolized | Compound NOT metabolized | Compound NOT metabolized | Compound NOT metabolized | – | Compound NOT metabolized | Compound NOT metabolized | Compound NOT metabolized | Compound NOT metabolized | Compound NOT metabolized | Compound NOT metabolized | Compound NOT metabolized | Compound NOT metabolized | Compound NOT metabolized | Compound NOT metabolized | Compound NOT metabolized | Compound NOT metabolized | Compound NOT metabolized | Compound NOT metabolized
5 | CC(C)c1nc(CN(C)C(=O)N[C@H](C(=O)N[C@@H](Cc2ccccc2)C[C@H](O)[C@H](Cc2ccccc2)NC(=O)OCc2cncs2)C(C)C)cs1 [RITONAVIR] | Compound NOT metabolized | – | Compound NOT metabolized | Compound NOT metabolized | Compound metabolized | Compound NOT metabolized | Compound NOT metabolized | Compound NOT metabolized | Compound NOT metabolized | Compound metabolized | Compound NOT metabolized | Compound NOT metabolized | Compound NOT metabolized | Compound NOT metabolized | – | Compound metabolized | Compound NOT metabolized | Compound NOT metabolized | Compound metabolized | –
6 | CN1CC(=O)N2[C@H](c3ccc4c(c3)OCO4)c3[nH]c4ccccc4c3C[C@@H]2C1=O | Compound NOT metabolized | Compound NOT metabolized | – | Compound NOT metabolized | – | Compound NOT metabolized | Compound metabolized | Compound NOT metabolized | Compound NOT metabolized | Compound NOT metabolized | Compound NOT metabolized | – | – | Compound NOT metabolized | Compound NOT metabolized | – | Compound NOT metabolized | Compound NOT metabolized | – | –
7 | CC(CN1c2ccccc2Sc2ccccc21)N(C)C (stereo not drawn) [PROMETHAZINE] | Compound NOT metabolized | Compound NOT metabolized | Compound NOT metabolized | Compound NOT metabolized | Compound NOT metabolized | Compound NOT metabolized | Compound NOT metabolized | Compound NOT metabolized | Compound NOT metabolized | Compound NOT metabolized | – | Compound NOT metabolized | Compound NOT metabolized | Compound NOT metabolized | Compound NOT metabolized | – | Compound NOT metabolized | Compound NOT metabolized | – | –
8 | COc1cc(C(=O)NCc2ccc(OCCN(C)C)cc2)cc(OC)c1OC [TRIMETHOBENZAMIDE] | Compound NOT metabolized | – | Compound NOT metabolized | Compound NOT metabolized | Compound NOT metabolized | Compound NOT metabolized | Compound NOT metabolized | Compound NOT metabolized | Compound NOT metabolized | Compound NOT metabolized | – | Compound NOT metabolized | Compound NOT metabolized | Compound NOT metabolized | Compound NOT metabolized | Compound NOT metabolized | Compound NOT metabolized | Compound NOT metabolized | Compound NOT metabolized | –
